According to patent publication US7172865B2, “Rapid and sensitive assay for the detection and quantification of coregulators of nucleic acid binding factors” (Saint Louis University, priority 2001, dated 2007):

Tests used:
[1] = system: LacR binding site split between LAC1/LAC4 and LAC2/LAC3; test: detection of Lac repressor protein by fluorescence quenching
From the text: The LAC1 oligonucleotide (SEQ ID NO:12) was hybridized with the LAC4 oligonucleotide (SEQ ID NO:15) to generate the LAC1/LAC4 construct and the LAC2 oligonucleotide (SEQ ID NO:13) was hybridized with the LAC3 oligonucleotide (SEQ ID NO:14) to generate the LAC2/LAC3 construct.

LacR protein = LacR protein (Escherichia coli, UniProt P03023); test: IPTG biosensor; format: binding; conditions: 50 nM and 60 nM components, 2 hrs
Procedure: FIG. 24 describes a biosensor for detecting IPTG. Increasing concentrations of IPTG were added to a mixture containing 50 nM fluorescein-labeled LacR-specific first nucleic acid component and 60 nM dabcyl-labeled Lac-specific second nucleic acid component.
FIG. 24 illustrates a biosensor design using a nucleic acid binding factor for which the coregulator reduced its affinity for a specific nucleic acid element. In this case, the coregulator will induce the dissociation of the protein-nucleic acid complex and its detection could be accomplished by coregulator-dependent disappearance of protein-nucleic acid complex. […] In the absence of IPTG (a coregulator for LacR) the LacR protein bound to its labeled cognate nucleic acid element resulting in quenching of the fluorescence signal.

CAP protein = CAP protein (Escherichia coli, UniProt P0ACJ8); conditions: cited from earlier work
TrpR [2] = target: T1, TrpR (Escherichia coli, UniProt P0A881); test: tryptophan biosensor, fluorescence intensity; format: binding; conditions: 250 nM and 300 nM components, 2 hrs
Procedure: Increasing concentrations of tryptophan were added to a mixture containing 250 nM fluorescein labeled TrpR-specific first nucleic acid component and 300 nM dabcyl-labeled Trp-specific second nucleic acid component.

TrpR [3] = target: T1, TrpR; test: tryptophan biosensor, fluorescence polarization; format: binding; conditions: 4 nM fluorescein-labeled 25 bp duplex
Procedure: Increasing concentrations of tryptophan were added to a mixture containing 4 nM fluorescein-labeled 25 bp DNA duplex containing consensus TrpR binding sites.
To illustrate that a different detection methodology for measuring the formation of nucleic acid-protein complexes could be accommodated to the biosensor design shown in FIG. 20, a biosensor for tryptophan was prepared wherein only one nucleic acid component was attached to a detectable label. According to this particular embodiment of the invention, fluorescence polarization of fluorochrome-labeled DNA component containing a TrpR cognate binding site was used to measure tryptophan-induced formation of a TrpR-nucleic acid complex (FIG. 23).

[4] = system: TrpR binding site split between TRP1/TRP4 and TRP2/TRP3; conditions: 250 nM TRP1/TRP4 and 300 nM TRP2/TRP3, 4 mM tryptophan
Procedure: The TRP1 oligonucleotide (SEQ ID NO:16) was hybridized with the TRP4 oligonucleotide (SEQ ID NO:19) to generate the TRP1/TRP4 construct and the TRP2 oligonucleotide (SEQ ID NO:17) was hybridized with the TRP3 oligonucleotide (SEQ ID NO:18) to generate the TRP2/TRP3 construct. For the hybridization, the appropriate oligonucleotides were mixed at 10 μM concentration in 100 μl of 50 mM Tris/HCl (pH 8.0), 100 mM NaCl, 1 mM EDTA, heated for 1 min at 95° C. and then cooled to 25° C. for 1 hr. All subsequent fluorescence measurements were performed at 15° C. in 10 mM potassium phosphate (pH 7.6), 50 mM NaCl, 0.1 mM EDTA, 4mM tryptophan, 10% glycerol, 0.01% sodium azide and 1.0 mg/ml BSA. […] The duplexes contain a TrpR binding site (underlined sequence) split between each of the two double stranded constructs.
The fluorescence spectra of 250 nM TRP1/TRP4 and 300 nM TRP2/TRP3 were recorded in the absence of TrpR (FIG. 16A, curve 1) and in the presence of varying amounts of TrpR in a range from 0–800 nM (FIG. 16A, curves 2–5). ).

Sequence of CAP protein (P0ACJ8 2-210): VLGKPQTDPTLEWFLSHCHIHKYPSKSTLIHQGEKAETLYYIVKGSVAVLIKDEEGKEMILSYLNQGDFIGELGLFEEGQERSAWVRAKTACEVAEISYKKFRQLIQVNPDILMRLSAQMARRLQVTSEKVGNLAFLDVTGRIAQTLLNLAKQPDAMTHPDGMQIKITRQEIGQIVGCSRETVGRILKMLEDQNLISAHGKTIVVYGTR

## CC(C)S[C@@H]1O[C@H](CO)[C@H](O)[C@H](O)[C@H]1O [IPTG, reference compound]
[1]; 5 mM IPTG
  effect on LacR nucleic acid binding activity: reduces its nucleic acid binding activity
LacR protein
  fluorescence signal response to IPTG: IPTG-dependent increase in fluorescence signal

## Nc1nc2c(ncn2[C@@H]2O[C@@H]3COP(=O)(O)O[C@H]3[C@H]2O)c(=O)[nH]1 [cGMP]
CAP protein; CAP alone
  affinity of CAP for the cyclic nucleotide: micromolar affinity
CAP protein
  change of affinity of CAP for the nucleotide in the presence of DNA containing a CAP binding site: remains unchanged

## N[C@@H](Cc1c[nH]c2ccccc12)C(=O)O [tryptophan]
TrpR [2]
  fluorescence signal response to tryptophan: large fluorescence signal change
TrpR [3]
  fluorescence polarization response to tryptophan: change of fluorescence polarization signal proportional to tryptophan concentration

B1: LacR: Lac repressor protein, nucleic acid binding reduced by IPTG (protein, UniProt P03023 1-360, looked up)
Lactose operon repressor: MKPVTLYDVAEYAGVSYQTVSRVVNQASHVSAKTREKVEAAMAELNYIPNRVAQQLAGKQSLLIGVATSSLALHAPSQIVAAIKSRADQLGASVVVSMVERSGVEACKAAVHNLLAQRVSGLIINYPLDDQDAIAVEAACTNVPALFLDVSDQTPINSIIFSHEDGTRLGVEHLVALGHQQIALLAGPLSSVSARLRLAGWHKYLTRNQIQPIAEREGDWSAMSGFQQTMQMLNEGIVPTAMLVANDQMALGAMRAITESGLRVGADISVVGYDDTEDSSCYIPPLTTIKQDFRLLGQTSVDRLLQLSQGQAVKGNQLLPVSLVKRKTTLAPNTQTASPRALADSLMQLARQVSRLESGQ
[1]; 50 nM LAC1/LAC4 plus LAC2/LAC3
  protein concentration at saturation of quenching: approximately 150 nM
[4]
  protein concentration at saturation of quenching: approximately 150 nM
